Experimental data taken from patent US20230257413A1, “ARTIFICIAL NUCLEIC ACID, METHOD FOR PRODUCING SAME, AND USE THEREOF” (RIKEN GENESIS CO., LTD., priority 2020, published 2023).

Tests used:
[1] = tested on: single-stranded RNA (5′-r(agcaaaaaacgc)-3′; SEQ ID NO: 7) (a sense strand); assay: Measurement of melting temperatures (Tm) of oligonucleotides, double strand forming capability with single-stranded RNA; assay type: binding; conditions: antisense 5′-d(gcgnnnnnngct)-3′ (SEQ ID NO: 4); 100 mM NaCl, 10 mM sodium phosphate buffer pH 7.2, 4 μM each strand
[2] = tested on: single-stranded DNA (5′-d(agcaaaaaacgc)-3′; SEQ ID NO: 6) (a sense strand); assay: Measurement of melting temperatures (Tm) of oligonucleotides, double strand forming capability with single-stranded DNA; assay type: binding; conditions: antisense 5′-d(gcgnnnnnngct)-3′ (SEQ ID NO: 4); 100 mM NaCl, 10 mM sodium phosphate buffer pH 7.2, 4 μM each strand

Substance	Tm value (target: ssRNA) [1] [°C]	Tm value (target: ssDNA) [2] [°C]
(R)EDM-T: SEQ ID NO: 4, n = formula (6) unit: thymin-1-yl, n 1, R^3 3-(N,N-dimethylamino)propyl, R^4 (R)-ethyl, R^5 H (DNA AGCAAAAAACG; n (R)EDM-T modified units, chemistry not fully specified; the letters are possibly those of the target site)	89	77
DNA-T: 5′-d(gcgnnnnnngct)-3′ (SEQ ID NO: 4), n = formula (7) unit, Base thymin-1-yl, R^a H (natural DNA T) (DNA AGCAAAAAACGC; n natural T, chemistry not fully specified; the letters are possibly those of the target site)	48	52
